# Assay results published in ChEMBL document CHEMBL3396974, “Synthetic approaches, functionalization and therapeutic potential of quinazoline and quinazolinone skeletons: the advances continue” (Eur J Med Chem, 2015).
# Experiments:
# [1] = test system: Bacillus subtilis; assay: Antibacterial activity against Bacillus subtilis; type: functional
# [2] = Cytotoxicity against human PC3 cells assessed as inhibition of cell growth; type: functional, cell-based; settings: PC-3
# [3] = Antiproliferative activity against human breast cancer cells; type: functional, cell-based; settings: Cancer cell lines
# [4] = Antiproliferative activity against human lung cancer cells; type: functional, cell-based; settings: Cancer cell lines
# [5] = Antiproliferative activity against human colon cancer cells; type: functional, cell-based; settings: Cancer cell lines
# [6] = Photocytotoxicity activity against human HL60 cells measured after UV irradiation; type: functional; settings: HL-60, light or radiation study
# [7] = target: T1, Dihydrofolate reductase (Homo sapiens, UniProt P00374); assay: Inhibition of DHFR (unknown origin)
# T1 sequence (P00374 whole entry): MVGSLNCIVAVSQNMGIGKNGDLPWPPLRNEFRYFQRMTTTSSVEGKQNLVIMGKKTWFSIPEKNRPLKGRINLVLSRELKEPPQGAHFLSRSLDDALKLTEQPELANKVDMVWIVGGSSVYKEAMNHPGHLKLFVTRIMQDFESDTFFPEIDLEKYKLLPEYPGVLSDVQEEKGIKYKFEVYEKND
# [8] = target: T2, Pro-cathepsin H (Homo sapiens) (UniProt P09668); assay: Inhibition of Cathepsin H (unknown origin) at 1 x 10^-4 M
# T2 sequence (whole entry): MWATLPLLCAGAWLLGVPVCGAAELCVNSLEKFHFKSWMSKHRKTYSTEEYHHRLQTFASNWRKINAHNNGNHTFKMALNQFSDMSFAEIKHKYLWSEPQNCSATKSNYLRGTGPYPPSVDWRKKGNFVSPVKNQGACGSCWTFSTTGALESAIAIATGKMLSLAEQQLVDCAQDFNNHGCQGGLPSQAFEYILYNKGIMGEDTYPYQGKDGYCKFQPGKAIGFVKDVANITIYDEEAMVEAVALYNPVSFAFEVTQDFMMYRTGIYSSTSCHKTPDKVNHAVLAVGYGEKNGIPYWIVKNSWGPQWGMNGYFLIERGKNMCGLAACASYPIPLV
# [9] = species: Mus musculus; assay: Anticonvulsant activity in mouse assessed as protection against maximal electroshock-induced seizures; type: functional
# [10] = test system: Mycobacterium tuberculosis; assay: Antimycobacterial activity against Mycobacterium tuberculosis H37Rv; type: functional
# [11] = target: Epidermal growth factor receptor (Homo sapiens, UniProt P00533); assay: Inhibition of EGFR (unknown origin)
# Epidermal growth factor receptor, sequence (P00533 whole entry): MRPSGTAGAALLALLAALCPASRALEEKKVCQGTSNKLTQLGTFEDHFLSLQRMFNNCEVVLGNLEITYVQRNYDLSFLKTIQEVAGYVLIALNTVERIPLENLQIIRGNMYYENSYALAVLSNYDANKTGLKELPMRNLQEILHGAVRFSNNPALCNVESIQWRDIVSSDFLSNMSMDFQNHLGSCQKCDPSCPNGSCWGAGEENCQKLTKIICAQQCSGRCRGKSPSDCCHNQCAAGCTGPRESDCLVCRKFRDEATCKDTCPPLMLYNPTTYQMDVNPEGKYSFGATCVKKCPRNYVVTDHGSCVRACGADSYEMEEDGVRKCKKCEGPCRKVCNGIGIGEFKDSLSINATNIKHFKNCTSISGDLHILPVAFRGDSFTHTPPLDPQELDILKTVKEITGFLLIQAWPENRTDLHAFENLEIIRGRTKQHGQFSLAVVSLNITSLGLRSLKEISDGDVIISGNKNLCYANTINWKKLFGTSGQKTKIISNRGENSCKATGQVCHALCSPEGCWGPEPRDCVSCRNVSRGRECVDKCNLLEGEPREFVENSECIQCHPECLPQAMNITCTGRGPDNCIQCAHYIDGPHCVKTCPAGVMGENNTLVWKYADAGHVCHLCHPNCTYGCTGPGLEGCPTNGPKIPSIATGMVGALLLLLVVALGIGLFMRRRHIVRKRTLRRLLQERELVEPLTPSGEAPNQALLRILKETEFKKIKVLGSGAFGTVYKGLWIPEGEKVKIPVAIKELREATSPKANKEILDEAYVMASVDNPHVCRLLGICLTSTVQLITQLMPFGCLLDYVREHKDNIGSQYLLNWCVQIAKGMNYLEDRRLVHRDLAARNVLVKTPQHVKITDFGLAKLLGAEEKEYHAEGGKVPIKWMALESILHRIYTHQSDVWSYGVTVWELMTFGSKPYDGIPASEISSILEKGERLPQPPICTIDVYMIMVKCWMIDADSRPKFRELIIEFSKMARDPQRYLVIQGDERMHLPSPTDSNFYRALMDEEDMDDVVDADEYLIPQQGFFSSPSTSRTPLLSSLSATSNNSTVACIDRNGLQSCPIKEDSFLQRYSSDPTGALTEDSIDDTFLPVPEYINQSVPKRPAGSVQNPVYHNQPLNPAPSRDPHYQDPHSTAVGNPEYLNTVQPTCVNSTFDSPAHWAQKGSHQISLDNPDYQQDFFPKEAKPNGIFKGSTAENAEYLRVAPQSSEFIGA
# [12] = test system: Staphylococcus aureus; assay: Antibacterial activity against methicillin-resistant Staphylococcus aureus; type: functional
# [13] = test system: Klebsiella pneumoniae; assay: Antibacterial activity against Klebsiella pneumoniae MTCC 109; type: functional
# [14] = test system: Pseudomonas aeruginosa; assay: Antibacterial activity against Pseudomonas aeruginosa MTCC 741 assessed as zone of inhibition; type: functional
# [15] = test system: Staphylococcus aureus; assay: Antibacterial activity against Staphylococcus aureus MTCC 96 assessed as zone of inhibition; type: functional
# [16] = test system: Bacillus cereus; assay: Antibacterial activity against Bacillus cereus MTCC 430; type: functional
# [17] = test system: Bacillus cereus; assay: Antibacterial activity against Bacillus cereus MTCC 430 assessed as zone of inhibition; type: functional
# [18] = test system: Staphylococcus aureus; assay: Antibacterial activity against Staphylococcus aureus MTCC 96; type: functional
# [19] = test system: Pseudomonas aeruginosa; assay: Antibacterial activity against Pseudomonas aeruginosa MTCC 741; type: functional
# [20] = test system: Klebsiella pneumoniae; assay: Antibacterial activity against Klebsiella pneumoniae MTCC 109 assessed as zone of inhibition; type: functional
# [21] = test system: Candida albicans; assay: Antifungal activity against Candida albicans MTCC 183; type: functional
# [22] = target: Cathepsin B (Homo sapiens) (UniProt P07858); assay: Inhibition of Cathepsin B (unknown origin) at 1 x 10^-4 M
# [23] = target: Cathepsin B (Homo sapiens) (UniProt P07858); assay: Inhibition of Cathepsin B (unknown origin) at 0.1 x 10^-4 M
# [24] = target: T2, Pro-cathepsin H (Homo sapiens); assay: Inhibition of Cathepsin H (unknown origin) at 0.25 x 10^-4 M
# [25] = test system: Escherichia coli; assay: Antibacterial activity against Escherichia coli MTCC 739; type: functional
# [26] = test system: Saccharomyces cerevisiae; assay: Antifungal activity against Saccharomyces cerevisiae; type: functional
# [27] = test system: SMMC-7721; assay: Cytotoxicity against human SMMC7721 cells by MTT assay; type: functional, cell-based
# [28] = Cytotoxicity against human CNE2 cells by MTT assay; type: functional, cell-based; settings: CNE-2
# [29] = Cytotoxicity against human PC3 cells by MTT assay; type: functional, cell-based; settings: PC-3
# [30] = test system: HUVEC; assay: Inhibition of cell adhesion in HUVEC at 15 uM after 3 hrs at 37 degC; type: functional; settings: Homo sapiens
# [31] = test system: HUVEC; assay: Inhibition of cell adhesion in HUVEC at 30 uM after 3 hrs at 37 degC; type: functional; settings: Homo sapiens
# [32] = test system: Escherichia coli; assay: Antibacterial activity against Escherichia coli assessed as zone of inhibition; type: functional
# [33] = test system: Staphylococcus aureus; assay: Antibacterial activity against Staphylococcus aureus assessed as zone of inhibition; type: functional
# [34] = target: Cathepsin B (Homo sapiens) (UniProt P07858); assay: Inhibition of Cathepsin B (unknown origin) at 0.50 x 10^-4 M
smiles,measurement,setting,value
Cn1c(=O)n(CCOC(=O)CNC(=O)c2ccco2)c(=O)c2ccccc21,MIC,[1],4 µg/mL
C[Se](=O)O [METHYLSELENINIC ACID],IC50,[2],< 8400 nM
O=c1c2ccccc2ncn1/N=C/c1ccc(O)c(O)c1O,IC50,[3],140 nM
same,IC50,[4],79 nM
same,IC50,[5],320 nM
CC1(C)CC(=O)C2=C(C1)N=C1Sc3ccccc3N1C2c1ccc(C(F)(F)F)cc1 (centres undefined),GI50,[6],900 nM
COc1cc(/C=C2\CCCc3c2nc(N)nc3-c2cc(OC)c(OC)c(OC)c2)cc(OC)c1OC,IC50,[7],14000 nM
CN(C)c1ccc(/C=C2\CCCC3=C2NC(=O)NC3c2ccc(N(C)C)cc2)cc1 (centres undefined),inhibition,[8],100%
COc1cc2nc(/C=C/c3ccccc3Cl)n(-c3ccccc3[N+](=O)[O-])c(=O)c2cc1OC,ED50,[9],98.2 µmol/kg
Cc1cccc(Oc2nc(-c3ccc(NC(=S)Nc4ccc(Br)cc4)cc3)nc3ccccc23)c1,inhibition (INH),[10],99%
same,MIC,"[10]; Mycobacterium tuberculosis, H37Rv",12.5 µg/mL
COc1cc2nc(/C=C/c3ccccc3Cl)n(-c3ccc([N+](=O)[O-])cc3)c(=O)c2cc1OC,ED50,[9],41.3 µmol/kg
Clc1cc(Nc2ncnc3ccc(NC4=NC[C@@H](COc5ccccc5)O4)cc23)ccc1OCc1nccs1,IC50,[11],950 nM
Cn1c(=O)n(CCOC(=O)CNC(=O)/C=C/c2ccccc2)c(=O)c2ccccc21,MIC,[12],4 µg/mL
same,MIC,[1],4 µg/mL
Cc1cccc(Oc2nc(-c3ccc(NC(=O)Nc4ccc(Br)cc4)cc3)nc3ccccc23)c1,MIC,[13],12.5 µg/mL
same,inhibition zone (IZ),[14],25 mm
same,inhibition zone (IZ),[15],29 mm
same,MIC,[16],12.5 µg/mL
same,inhibition zone (IZ),[17],26 mm
same,MIC,[18],6.25 µg/mL
same,MIC,[19],25 µg/mL
same,inhibition zone (IZ),[20],27 mm
same,MIC,[21],12.5 µg/mL
COc1ccc(/C=C2\CCCc3c2nc(C)nc3-c2ccc(OC)c(OC)c2)cc1OC,IC50,[7],100 nM
O=C1NC2=C(CCC/C2=C\C=C\c2ccccc2)C(/C=C/c2ccccc2)N1 (centres undefined),inhibition,[22],100%
same,inhibition,[23],50%
CN(C)c1ccc(/C=C2\CCCC3=C2NC(=S)NC3c2ccc(N(C)C)cc2)cc1 (centres undefined),inhibition,[24],100%
COc1ccc(C(=O)NCC(=O)OCCn2c(=O)c3ccccc3n(C)c2=O)cc1,MIC,[1],4 µg/mL
CC[C@@]1(O)C(=O)OCc2c1cc1n(c2=O)Cc2cc3c(CN(C)C)c(O)ccc3nc2-1 [TOPOTECAN],IC50,[2],< 4000 nM
CC1(C)CC(=O)C2=C(C1)N=C1Sc3ccccc3N1C2c1ccc(F)cc1 (centres undefined),GI50,[6],900 nM
Cn1c(=O)n(CCOC(=O)CNC(=O)c2ccc([N+](=O)[O-])cc2)c(=O)c2ccccc21,MIC,[12],4 µg/mL
O=c1c2ccccc2nc(-c2ccc(Cl)cc2)n1Cc1ccccc1,MIC,[25],25.1 µg/mL
same,MIC,[26],18.3 µg/mL
same,MIC,[18],25.6 µg/mL
same,MIC,[19],30.1 µg/mL
same,MIC,[1],24.3 µg/mL
same,MIC,[21],26.1 µg/mL
COc1ccc(/C=C2\CCCc3c2nc(N)nc3-c2ccc(OC)c(OC)c2)cc1OC,IC50,[7],14000 nM
COc1cc2nc(/C=C/c3ccccc3Cl)n(-c3ccc(Br)cc3)c(=O)c2cc1OC,ED50,[9],41.3 µmol/kg
Clc1cc(Nc2ncnc3ccc(NC4=NC[C@H](COc5ccccc5)O4)cc23)ccc1OCc1nccs1,IC50,[11],1210 nM
CN(C)CCCNc1nc(-c2ccccc2NC(=O)CCN2CCN(C)CC2)nc2ccccc12,IC50,[27],10900 nM
same,IC50,[28],9300 nM
same,IC50,[29],9800 nM
same,inhibition at 15 µM,[30],65.8%
same,inhibition at 30 µM,[31],71.2%
Oc1ccc(/C=N/NC2=NC3=C(CCCC3)C(c3ccccc3)N2)cc1 (centres undefined),inhibition zone (IZ),[32],17 mm
same,inhibition zone (IZ),[33],18 mm
Cn1c(=O)n(CCOC(=O)CNC(=O)c2ccc(F)cc2)c(=O)c2ccccc21,MIC,[12],4 µg/mL
S=C1NC2=C(CCC/C2=C\C=C\c2ccccc2)C(/C=C/c2ccccc2)N1 (centres undefined),inhibition,[34],100%
COc1cc2nc(/C=C/c3ccccc3Cl)n(-c3ccncc3)c(=O)c2cc1OC,ED50,[9],66.4 µmol/kg
COc1cc(/C=C2\CCCc3c2nc(C)nc3-c2cc(OC)c(OC)c(OC)c2)cc(OC)c1OC,IC50,[7],500 nM
CC1(C)CC(=O)C2=C(C1)N=C1Sc3ccccc3N1C2c1ccccc1C(F)(F)F (centres undefined),GI50,[6],900 nM
CN[C@@H]1[C@H](O[C@H]2[C@H](O[C@H]3[C@H](O)[C@@H](O)[C@H](N=C(N)N)[C@@H](O)[C@@H]3N=C(N)N)O[C@@H](C)[C@]2(O)C=O)O[C@@H](CO)[C@H](O)[C@H]1O [STREPTOMYCIN],MIC,[1],32 µg/mL
